Measured values published in patent US7109354B2, “Thiophene amidines, compositions thereof, and methods of treating complement-mediated diseases and conditions” (3-Dimensional Pharmaceuticals, Inc., priority 2002, dated 2006).
Counter-ions that a name gives are not always drawn.

Target: T1, Activated human C1s (Homo sapiens, UniProt P09871)
T1 construct: purchased Calbiochem (La Jolla, Calif.)
T1 sequence (P09871 438-688 limits assumed): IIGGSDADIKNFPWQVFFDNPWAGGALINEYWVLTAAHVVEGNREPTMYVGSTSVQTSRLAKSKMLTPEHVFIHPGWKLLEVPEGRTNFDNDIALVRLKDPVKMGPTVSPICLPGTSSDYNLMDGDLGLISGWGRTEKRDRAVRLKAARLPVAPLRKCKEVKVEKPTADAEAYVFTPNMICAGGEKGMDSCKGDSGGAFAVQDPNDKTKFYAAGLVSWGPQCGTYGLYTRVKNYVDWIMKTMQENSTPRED
T1 sequence (P09871 16-437 partner limits assumed): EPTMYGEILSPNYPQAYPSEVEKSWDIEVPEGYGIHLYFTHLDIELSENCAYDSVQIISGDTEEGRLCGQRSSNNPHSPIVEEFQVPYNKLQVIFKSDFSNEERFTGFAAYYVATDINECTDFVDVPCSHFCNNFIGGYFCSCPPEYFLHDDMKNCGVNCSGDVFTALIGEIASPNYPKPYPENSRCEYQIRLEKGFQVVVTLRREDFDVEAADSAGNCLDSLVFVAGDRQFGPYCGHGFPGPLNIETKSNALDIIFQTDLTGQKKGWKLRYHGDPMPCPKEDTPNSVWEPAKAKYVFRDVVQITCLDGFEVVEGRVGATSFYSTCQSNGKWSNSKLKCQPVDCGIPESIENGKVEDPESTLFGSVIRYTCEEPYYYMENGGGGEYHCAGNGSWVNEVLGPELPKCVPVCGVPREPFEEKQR
Assay: In vitro inhibition of C1s (Ki determination, C1s-catalyzed hydrolysis of Z-Gly-Arg-S-Bzl, DTNB readout)
Assay type: biochemical
Details: substrate Z-Gly-Arg-S-Bzl 45 μM, DTNB 200 μM, C1s 2.3 nM, pH 7.5, 37° C., absorbance at 405 nm

Ki, 6 to 23 nM:
CSc1sc(C(=N)N)cc1S(=O)(=O)c1cccc(-c2ccccc2C)c1 [Example 90, 4-(2′-methyl-biphenyl-3-sulfonyl)-5-methylsulfanyl-thiophene-2-carboxamidine]
CSc1sc(C(=N)N)cc1S(=O)(=O)c1cccc(-c2cccc3ccccc23)c1 [Example 91, 5-methylsulfanyl-4-(3-naphthalen-1-yl-benzenesulfonyl)-thiophene-2-carboxamidine]
CSc1sc(C(=N)N)cc1S(=O)(=O)c1cccc(-c2ccc(Cl)s2)c1 [Example 92, 4-[3-(5-Chloro-thiophen-2-yl)-benzenesulfonyl]-5-methylsulfanyl-thiophene-2-carboxamidine]
CSc1sc(C(=N)N)cc1S(=O)(=O)c1cccc(-c2ccccc2C=O)c1 [Example 93, 4-(2′-formyl-biphenyl-3-sulfonyl)-5-methylsulfanyl-thiophene-2-carboxamidine]
C=Cc1ccc(-c2cccc(S(=O)(=O)c3cc(C(=N)N)sc3SC)c2)cc1 [Example 94, 5-methylsulfanyl-4-(4′-vinyl-biphenyl-3-sulfonyl)-thiophene-2-carboxamidine]
CCOc1cccc(-c2cccc(S(=O)(=O)c3cc(C(=N)N)sc3SC)c2)c1 [Example 95, 4-(3′-ethoxy-biphenyl-3-sulfonyl)-5-methylsulfanyl-thiophene-2-carboxamidine]
CSc1sc(C(=N)N)cc1S(=O)(=O)c1cccc(-c2c(C)cccc2C)c1 [Example 96, 4-(2′,6′-dimethyl-biphenyl-3-sulfonyl)-5-methylsulfanyl-thiophene-2-carboxamidine]
CSc1sc(C(=N)N)cc1S(=O)(=O)c1cccc(-c2cccc(C(C)C)c2)c1 [Example 98, 4-(3′-isopropyl-biphenyl-3-sulfonyl)-5-methylsulfanyl-thiophene-2-carboxamidine]
CSc1sc(C(=N)N)cc1S(=O)(=O)c1cccc(-c2cccc(C)c2C)c1 [Example 99, 4-(2′,3′-dimethyl-biphenyl-3-sulfonyl)-5-methylsulfanyl-thiophene-2-carboxamidine]
CSc1sc(C(=N)N)cc1S(=O)(=O)c1cccc(-c2cccc(Cl)c2Cl)c1 [Example 100, 4-(2′,3′-dichloro-biphenyl-3-sulfonyl)-5-methylsulfanyl-thiophene-2-carboxamidine]
CSc1sc(C(=N)N)cc1S(=O)(=O)c1cccc(-c2cccc(C(C)=O)c2)c1 [Example 101, 4-(3′-acetyl-biphenyl-3-sulfonyl)-5-methylsulfanyl-thiophene-2-carboxamidine]
CCOC(=O)c1cccc(-c2cccc(S(=O)(=O)c3cc(C(=N)N)sc3SC)c2)c1 [Example 102, 3′-(5-carbamimidoyl-2-methylsulfanyl-thiophene-3-sulfonyl)-biphenyl-3-carboxylic acid ethyl ester]
CSc1sc(C(=N)N)cc1S(=O)(=O)c1cccc(-c2cccc(C(=O)N(C)C)c2)c1 [Example 103, 3′-(5-carbamimidoyl-2-methylsulfanyl-thiophene-3-sulfonyl)-biphenyl-3-carboxylic acid dimethylamide]
CSc1sc(C(=N)N)cc1S(=O)(=O)c1cccc(-c2cccc(C(N)=O)c2)c1 [Example 104, 3′-(5-carbamimidoyl-2-methylsulfanyl-thiophene-3-sulfonyl)-biphenyl-3-carboxylic acid amide]
CSc1sc(C(=N)N)cc1S(=O)(=O)c1cccc(-c2ccc3[nH]cnc3c2)c1 [Example 106, 4-[3-(1H-benzoimidazol-5-yl)-benzenesulfonyl]-5-methylsulfanyl-thiophene-2-carboxamidine]
CSc1sc(C(=N)N)cc1S(=O)(=O)c1cccc(-c2ccccc2N)c1 [Example 107, 4-(2′-amino-biphenyl-3-sulfonyl)-5-methylsulfanyl-thiophene-2-carboxamidine]
CSc1sc(C(=N)N)cc1S(=O)(=O)c1cc(-c2ccccc2C)c2ncn(C)c2c1 [Example 108, 5-methylsulfanyl-4-(3-methyl-7-o-tolyl-3H-benzoimidazole-5-sulfonyl)-thiophene-2-carboxamidine trifluoroacetate]
CSc1sc(C(=N)N)cc1S(=O)(=O)c1cc(-c2ccccc2C)c2nc[nH]c2c1 [Example 110, 5-methylsulfanyl-4-(7-o-tolyl-3H-benzoimidazole-5-sulfonyl)-thiophene-2-carboxamidine trifluoroacetate]
COc1cccc(S(=O)(=O)c2cc(C(=N)N)sc2SC)c1 [Example 114, 4-(3-Methoxy-benzenesulfonyl)-5-methylsulfanyl-thiophene-2-carboxamidine hydrochloride HCl]
CSc1sc(C(=N)N)cc1S(=O)(=O)c1ccc(C)c(-c2ccccc2)c1 [Example 115, 4-(6-Methyl-biphenyl-3-sulfonyl)-5-methylsulfanyl-thiophene-2-carboxamidine trifluoroacetate]
CSc1sc(C(=N)N)cc1S(=O)(=O)c1cccc(Oc2ccccc2)c1 [Example 116, 5-Metylsulfanyl-4-(3-phenoxy-benzenesulfonyl)-thiophene-2-carboxamidine hydrochloride salt]
CSc1sc(C(=N)N)cc1S(=O)(=O)c1cccc(-c2ccccc2)c1 [Example 117, 4-(Biphenyl-3-sulfonyl)-5-methylsulfanyl-thiophene-2-carboxamidine trifluoroacetate]
CSc1sc(C(=N)N)cc1S(=O)(=O)c1cnc(Cl)c(Br)c1 [Example 118, 4-(5-Bromo-6-chloro-pyridine-3-sulfonyl)-5-methylsulfanyl-thiophene-2-carboxamidine]
CSc1sc(C(=N)N)cc1S(=O)(=O)c1cnc(N)c(Br)c1 [Example 119, 4-(6-Amino-5-bromo-pyridine-3-sulfonyl)-5-methylsulfanyl-thiophene-2-carboxamidine]
CSc1sc(C(=N)N)cc1S(=O)(=O)c1cnc(N)c(-c2ccccc2C)c1 [Example 121, 4-(6-Amino-5-o-tolyl-pyridine-3-sulfonyl)-5-methylsulfanyl-thiophene-2-carboxamidine]
CSc1sc(C(=N)N)cc1S(=O)(=O)c1cccc(-c2c(C)cc(Cl)cc2NC(=O)CCCS(C)(=O)=O)c1 [Example 135, N-[3′-(5-Carbamimidoyl-2-methylsulfanyl-thiophene-3-sulfonyl)-4-chloro-6-methyl-biphenyl-2-yl]-4-methanesulfonyl-butyramide trifluoroacetate]
CCCCCCNC(=N)Nc1ccc(-c2cccc(S(=O)(=O)c3cc(C(=N)N)sc3SC)c2)c(C)c1 [Example 136, 4-[4′-(N′-Hexyl-guanidino)-2′-methyl-biphenyl-3-sulfonyl]-5-methylsulfanyl-thiophene-2-carboxamidine trifluoroacetate]
CSc1sc(C(=N)N)cc1S(=O)(=O)c1cccc(-c2ccc(NC(=N)NCCCS(C)(=O)=O)cc2C)c1 [Example 171, 4-{4′-[N′-(3-Methanesulfonyl-propyl)-guanidino]-2′-methyl-biphenyl-3-sulfonyl}-5-methylsulfanyl-thiophene-2-carboxamidine trifluoroacetate]
CSc1sc(C(=N)N)cc1S(=O)(=O)c1cccc(-c2ccc(NC(=N)NCCCCCS(C)(=O)=O)cc2C)c1 [Example 173, 4-{4′-[N′-(5-Methanesulfonyl-pentyl)-guanidino]-2′-methyl-biphenyl-3-sulfonyl}-5-methylsulfanyl-thiophene-2-carboxamidine trifluoroacetate]
CSc1sc(C(=N)N)cc1S(=O)(=O)c1cccc(-c2c(C)cc(NC(=N)N)cc2NC(=O)NCCCCS(C)(=O)=O)c1 [Example 184, 4-{4′-Guanidino-2′-[3-(4-methanesulfonyl-butyl)-ureido]-6′-methyl-biphenyl-3-sulfonyl}-5-methylsulfanyl-thiophene-2-carboxamidine trifluoroacetate]
COc1cc(C)c(-c2cccc(S(=O)(=O)c3cc(C(=N)N)sc3SC)c2)c(COCC(=O)O)c1 [Example 192, [3′-(5-Carbamimidoyl-2-methylsulfanyl-thiophene-3-sulfonyl)-4-methoxy-6-methyl-biphenyl-2-ylmethoxy]-acetic acid trifluoroacetate]
CSc1sc(C(=N)N)cc1S(=O)(=O)c1cccc(-c2c(C)cccc2NC(=O)NCCNS(=O)(=O)c2ccccc2)c1 [Example 194, 4-{2′-[3-(2-Benzenesulfonylamino-ethyl)-ureido]-6′-methyl-biphenyl-3-sulfonyl}-5-methylsulfanyl-thiophene-2-carboxamidine trifluoroacetate]
